Our source for the melting point values is a melting point compilation (Tetko et al.; mined from patent text by program, amines drawn as free bases though some values may be those of a salt).

Some results are limits rather than exact numbers.

A word on the melting point: it is the temperature of the solid-liquid transition. As for `CCCc1c(COc2ccc(Cc3nnn(CCCC(=O)O)n3)cc2)ccc(C(C)=O)c1O`, the melting point fell in the range of 92 to 94 °C.
The molecule `Cn1c(C(F)(F)F)cc(=O)n(-c2ccc3snc(N4CCOCC4)c3c2)c1=O` had a melting point of 200 to 205 °C.
As to `OCC1OC(n2cnc3c(NCCC(c4ccccc4)c4ccccc4)ncnc32)C(O)C1O` (stereo unspecified), the melting point fell in the range of 103 to 118 °C.
With `Cc1nc(N)nc(N)c1-c1cc(Cl)ccc1Cl` the figure was 226 to 228 °C.
Regarding `Cc1ccc(-c2ccc(Cl)cc2Cl)c(=O)[nH]1`, the melting point lay within 266 to 268 °C.
In turn, `CC(C)(CO)Nc1nc(Nc2cccc(NS(C)(=O)=O)c2)nc2[nH]cnc12` had a melting point of 215 to 218 °C.
For `CC(=O)c1ccccc1-c1ccc(C(=O)N2Cc3ccc(C(=O)NCc4cccnc4)n3Cc3ccccc32)cc1`, the melting point was 149 to 150 °C.
With `O=Cc1ccc2c(c1)CC(Cc1ccccc1)O2` (stereo unspecified) the figure was 77 to 80 °C; with `Cc1ccc(C(=O)c2cccc(S(=O)(=O)O)n2)cc1`, greater than 300 °C.
`Cc1cccc(NC(=O)NCC(=O)N(CC(=O)OC2CCCCC2)c2ccccc2)c1`: the melting point was 176 °C.
The result for `CCC(CC)c1ccc(Cl)c2nc(Oc3c(C)cc(Cl)cc3Cl)n(C)c12` reads 155 to 157 °C.
The result for `Cc1ccc2c(NN)ccnc2c1NC(=O)c1c(Cl)cccc1Cl` reads 202 to 204 °C; that for `O=C1NC(=S)SC1=C(c1ccccc1)c1ccccc1`, 192 to 194 °C; that for `COCOc1cc(C=O)c2nc3cccc(OCOC)c3nc2c1`, 148 to 150 °C.
The result for `CCP(=O)(OC)C(O)C(CC1CCCCC1)NC(=O)[C@H](CC(C)C)NC(=O)CCc1ccccc1` (stereo partly specified) reads 170 to 175 °C; that for `CSc1c(O[C@@H]2CCC[C@H](N3C(=O)c4ccccc4C3=O)C2)ccc2[nH]ncc12` (relative stereo), 156 to 157 °C; that for `COC(=O)C(Cc1ccc(OCc2ccccc2)cc1)NC(=O)c1cc2ccc(-c3ccc(Cl)cc3)cc2s1` (stereo unspecified), 200 to 201 °C.
`O=C1CCC(N2C(=O)c3ccc(CNC(=O)NC4CCCCC4)cc3C2=O)C(=O)N1` (stereo unspecified) came in with a melting point of 208 to 210 °C.
As to `CC(=O)NC[C@H]1CN(c2ccc(C(=O)c3ccc4cnc(C)cn34)cc2)C(=O)O1`, the melting point was 248 to 250 °C.
The molecule `COc1ccccc1-n1nccc1-c1nn(-c2cccc(C(F)(F)F)c2)ccc1=O` came in with a melting point of 146 to 147 °C.
The result for `COC(=O)NC(=O)c1c(Br)ccc2c(C(F)(F)F)c(OC)ccc12` reads 180 to 182 °C.
Consider `Cn1nnnc1SCC(CS(=O)(=O)c1ccc(-c2ccc(Cl)cc2)cc1)C(=O)O` (stereo unspecified), for which the melting point lay in the range of 98 to 100 °C.
Molecule `O=C(Nc1cc(F)cc2c(=O)cc(C(=O)O)oc12)c1ccc2c(c1)CC(CCCc1ccccc1)O2` (stereo unspecified) registered a melting point of 183 to 185 °C.
Molecule `c1ccc(-c2cn3c4c(sc3n2)CCCC4)cc1` returned a melting point of 158 to 160 °C.
The result for `COc1ccc(OC)c(CN2CCc3cc(O)c(OC)cc3C2)c1` reads 104 to 105 °C.
Regarding `Cc1nc(C)n(-c2cc([C@@H]3C[C@H]3c3nc4ccccc4n3C)nc(N)n2)n1` (relative stereo), the melting point lay in the range of 120 to 122 °C.
Consider `O=c1c(-c2ccccc2)cc(Cl)c2n1C=CSc1ccsc1-2`, for which the melting point lay within 149 to 151 °C.
For `CCOC(=O)c1sc(Oc2ccccc2)c2c1CCCC2=O`, the melting point lay within 125 to 127 °C.
With `C=C(CCCCCCCCC)C(N)=O` the figure was 80 to 81 °C.
The result for `CCOc1ccc2c(c1)n(C1CCCCC1)c(=O)n2S(=O)(=O)c1ccc(NC(=O)N(C)C(C)(C)C)cc1OC` reads 208 °C; that for `CN[C@@H](C)[C@@H]1CCN(c2c(F)cc3c(=O)[nH]c(=O)n(C4CC4)c3c2OC)C1`, 162 to 164 °C; that for `CC(C)(C)c1ccc(OC2CN(C(c3ccccc3)c3ccccc3)C2)cc1`, 126 to 127 °C.
The result for `Oc1csc(Cc2n[nH]c3ccccc23)c1` reads 189 to 190 °C; that for `CCCCCCCCCCc1ccc2cc(SC)c(O)cc2c1`, 64.4 to 65.4 °C.
`O=C(Nc1nc(Cc2ccccc2)c(C(=O)c2sc(NC(=O)Oc3ccccc3)nc2Cc2ccccc2)s1)Oc1ccccc1`: the melting point is greater than 285 °C.
Take `CC(C)CNC(=S)Nc1cc(Cl)cc(Cl)c1`: the melting point was determined as 144 °C.
Regarding `Cc1nnc2n1-c1ccc(I)cc1C(c1ccccc1F)=NC2`, the melting point fell in the range of 235 to 238 °C.
`CC(C)(C)OC(=O)N1CCc2ccc(NS(C)(=O)=O)cc2CC1`: the melting point is 153 to 154 °C.
In the case of `Cc1cc(NC(=O)CC#N)nc(C)n1`, the melting point came out at 178 °C.
In turn, `CSc1cnc2cc(-c3ccccc3Cl)sc2c1O` displayed a melting point of 270 to 273 °C.
With `COCCCc1nc(C(F)F)ccc1C(=O)C1C(=O)C2CCC(C2)C1=O` (stereo unspecified) the figure was 45 to 46 °C; with `COc1cc(OC)c(-c2cc3ccccc3[nH]2)cc1C=CC(=O)c1ccc(S(N)(=O)=O)cc1`, 185 to 187 °C; with `COc1ccc(C2=NN(C3CCN(c4ccc([N+](=O)[O-])cc4)CC3)C(=O)[C@@H]3CC=CC[C@H]23)cc1OC`, 196 to 197 °C.
With `CC(C)CC(NC(=O)Cc1ccc(NC(=O)Nc2ccccc2F)cc1)c1ncc(CCC(=O)O)s1` (stereo unspecified) the figure was 83 to 85 °C; with `c1ccc(COc2cccc(Nc3nnc(Cc4ccncc4)c4ccccc34)c2)cc1`, 142 to 143 °C; with `CCOC(=O)/C=C/c1ccc(OCCOC2CC2)cc1Oc1ncc(C(F)(F)F)cc1Cl`, 75.4 to 75.9 °C.
The result for `CC(=O)OC1CCC2(C)C(CCC3=C4C(=O)CC(C(C)CCCC(F)(C(F)(F)F)C(F)(F)F)C4(C)CCC32)C1` (stereo unspecified) reads 187 to 188 °C; that for `O=C1CCC(c2ccccc2)(c2ccccc2)C2CN(C(Cc3ccccc3)=NCc3cccc4ccccc34)CC12` (stereo unspecified), 192 °C.
For the molecule `O=C(O)c1ccc(CCOCCCCCCBr)s1`, the melting point lay within 60 to 61 °C.
Turning to `CC1(C)CC(=C(c2ccc(O)cc2)c2ccc(-c3ccc(CO)cc3)cc2)CC(C)(C)C1`, the melting point was 222 to 223 °C.
With `CCOC(Cc1ccc(OCCN2CCSc3ccccc32)cc1)C(N)=O` (stereo unspecified) the figure was 120 to 122 °C.
With `O=c1c(-c2cccc(C(F)(F)F)c2Cl)nn(CCCCC(F)(F)F)c2cccc(Cl)c12` the figure was 137 to 138 °C; with `Cc1ccccc1C(=O)P(=O)(c1ccccc1)c1ccccc1`, 107 °C; with `Cc1cc2oc(=O)c(NC(N)=O)c(-c3ccccc3C)c2cc1Cl`, 240 to 242 °C.
With `O=C1Nc2ccc(NC(=O)C(=O)N3CCC(Cc4ccccc4)CC3)cc2C1=O` the figure was 234 to 236 °C; with `Cc1cc(N2CCN(CC3CC3)C2=O)sc1C(=O)NCc1cccnc1`, 157 to 159 °C.
`COc1cccc(-c2cn3cc(C(=O)NCCCCCCC(=O)NO)sc3n2)c1` had a melting point of 209 to 211 °C.
The molecule `COC(=O)C(OC)C(=S)Nc1cc(Cl)cc(Cl)c1` (stereo unspecified) gave a melting point of 144 to 147 °C.
The result for `O=C1OC(=O)c2c1cccc2N1C(=O)CCC1=O` reads 202 to 205 °C; that for `Cc1cc(NC2=NCCN2)n(-c2ccc(F)cc2)n1`, 213 to 215 °C.
`Cc1cc(C#N)c(C)c(C(=O)Nc2ccn(C)n2)n1`: the melting point stood at 180 °C.
For `O=C1C(=O)c2ccccc2C2=C1SCC1(CCN(C(=O)c3ccncc3)CC1)O2`, the melting point lay in the range of 267 to 269 °C.
With `CC1=C(C)CC(C(=O)O)OC1` (stereo unspecified) the figure was 82 to 84 °C; with `CCc1cccc2c(/C(C)=C/C(=O)O)cc(OC)c(OCOC)c12`, 114 to 115 °C; with `Nc1ccc(S(=O)(=O)Nc2nnc(CC(=O)O)s2)cc1`, 209 to 210 °C.
With `CCC(=O)N(C(=O)CC)c1nc2c(c(-c3ccccc3)cn2C)c(=O)n1C` the figure was 215 to 217 °C.
In turn, `O=C(O)CCCCC1NC(=O)OC1=O` (stereo unspecified) gave a melting point of 102 to 104 °C.
The molecule `O=C(c1nccs1)c1cnn2c(-c3ccncc3)ccnc12` came in with a melting point of 323 to 325 °C.
Consider `Nc1ncc2c(n1)CCC(CNC(=O)[C@@H]1CCCN1C(=O)[C@@H](CC1CCCCC1)NS(=O)(=O)Cc1ccccc1)C2` (stereo partly specified), for which the melting point was 118 to 121 °C.
The result for `COC(=O)CCCNC(=O)CCCN(C(=O)c1cc(OC)c(OC)c(OC)c1)c1c(C)cccc1C` reads 97 to 99 °C.
The result for `Cc1c(C(F)(F)C(F)(F)F)ncn(-c2c(Cl)cc(C(F)(F)F)cc2C#N)c1=O` reads 158 to 160 °C; that for `O=c1ncc(C(F)(F)F)cn1COCc1ccc(Cl)cc1`, 120 °C.
The result for `Cc1cc2c(c3c1NC(=O)C(C)(C)C3)OC(C)(CBr)C2` (stereo unspecified) reads 158 to 160 °C; that for `COc1ccc2ncc(CC(N)C(=O)O)cc2c1` (stereo unspecified), 246 to 247 °C.
Take `Cc1c(Cl)ccc(S(=O)(=O)Cl)c1C#N`: the melting point is 69 to 72 °C.
With `CC1(C(=O)C(=Cc2ccc(Cl)cc2Cl)n2cncn2)COCOC1` the figure was 133 to 135 °C; with `O=C(O)c1ccc2[nH]c3ccccc3c2c1`, 271 to 272 °C.
The result for `COC(=O)c1ccc(-c2nc3c(OC)cccc3s2)cc1` reads 165 to 167 °C; that for `COc1ccc(Cc2ccc3nc(N)nc(N)c3c2)cc1`, 207 to 209 °C; that for `CCN1C(=O)C2Cc3c([nH]c4ccccc34)C(c3ccc(N(C)C)cc3)N2C1=O` (stereo unspecified), 262 to 265 °C.
The result for `CN1C[C@H](O)C[C@H]1CCOc1ccc(Cl)cc1CCc1ccccc1` reads 65 to 68 °C; that for `COCOc1c(OC)cc(C(=O)C(=O)O)c2cccc(Cc3ccccc3)c12`, 75 to 79 °C; that for `Cn1c(=O)nc(-c2ccccc2)c2cc(Cl)ccc21`, 224 °C.
With `O=C(c1ccc2ncccc2c1)c1ccc2nc(Cl)nc(-c3cccc(Cl)c3)c2c1`, the melting point came to 170 °C.
The result for `C[C@H](c1ccccc1)N1C(=O)c2c(F)c(F)c(F)c(F)c2C1=O` reads 95.5 to 96 °C; that for `COc1cc(C(O)c2ccnn2C)c(Cl)c(Cl)c1OC` (stereo unspecified), 149 to 154 °C.
